Results as given in US11827917B1, “Methods for the conversion of fermentable sugars to ethanol” (Colorado State University Research Foundation, priority 2020, dated 2023).
Marks after values point to notes of the source that are not given here.

Key:
[1] = tested on: S. cerevisiae JAY 270; assay: Growth test in liquid YNB medium, low/high nitrogen, serum bottles; type: cell-based, Saccharomyces cerevisiae; conditions: 40, 200, 1000 mg/L; low and high nitrogen media
Experimental: A second set of tests was performed in a defined liquid medium, Yeast Nitrogen Base with Glucose (YNB), containing (NH4)2SO4 at either low (1 mM) or high (10 mM) nitrogen content. […] All serum bottles were incubated in a shaker at 30° C. and 150 RPM. Each treatment was performed in biological duplicate. Samples were collected at 0, 5, and 10 hours.

[2] = tested on: S. cerevisiae JAY 270; assay: Serum-bottle cultivation in YPD: biomass, glycerol, ethanol yields; type: cell-based, Saccharomyces cerevisiae
Experimental: Procedure: Cultivations in serum bottles were used to determine the effect of the best-performing screened chemicals on the ethanol yield. S. cerevisiae JAY 270 was pre-cultured in 100 mL of YPD medium in 200-mL serum bottles overnight in a shaker at 30° C. and 200 rpm. The precultured yeast cells were collected and washed twice as described above. The cell pellet was resuspended in about 10 mL of 0.8% (w/v) NaCl and the cell concentration was estimated as OD600. TyrOH, PheOH, and TrpOH were added to 30 mL of YPD medium in 100-mL serum bottles at 0.05% and 0.2% respectively. The same amount of DMSO was added to YPD medium to serve as the control for TrpOH and TyrOH treatments. The bottles were inoculated with the prepared yeast cells to obtain an initial cell concentration of OD600=0.2. The serum bottles were sealed and cultured in a shaker at 30° C. and 200 rpm for 24 h. Each condition had three biological replicates.
(§1) Analytical methods: Cell growth was evaluated by monitoring OD600 and cell dry mass concentration. For dry mass measurements, 1.0 mL of culture was transferred to a pre-dried and pre-weighed 2-mL centrifuge tube. The tubes were centrifuged for 10 min at 14000 rpm using a microcentrifuge, and then the cell pellets were dried in an oven for 3 days at 65° C. The cell dry mass was determined by subtracting the initial tube mass from the dried mass of tube with cells. The concentrations of glucose, ethanol, and glycerol were measured via HPLC (Shimadzu LC20A series) outfitted with a refractive index detector and using an Aminex HPX-87H (300×7.8 mm) organic acid column and Cation H+ guard cartridge (Bio Rad Laboratories, Hercules, CA). The column was maintained at 65° C. and the mobile phase was 5 mM sulfuric acid with a flow rate of 0.6 mL/min. Standard compound solutions were used to calibrate the HPLC. Each sample was analyzed three times by HPLC.

[3] = tested on: S. kudriavzezii JAY 1503; assay: Serum-bottle cultivation in YPD, different yeast strains; type: cell-based; conditions: 0.2%
Experimental: as §1
(§2) Procedure: Seven yeast strains (S. cerevisiae ATCC 26603, S. cerevisiae JAY 238, S. cerevisiae JAY 240, S. cerevisiae JAY 241, S. paradoxus JAY 1502, S. kudriavzezii JAY 1503, and S. mikatae JAY 1504) were pre-cultured in 30 mL of YPD medium in 100 mL serum bottle overnight in a shaker at 30° C. and 200 rpm. The precultured yeast cells of each strains were collected and washed twice. Finally, the cell pellet was resuspended in about 10 mL 0.8% (w/v) NaCl and the OD600 measured. TyrOH, PheOH, and TrpOH were added to 30 mL of YPD medium in 100-mL serum bottles at 0.2% (w/v) respectively. The same amount of DMSO was added in YPD medium and served as control to the TrpOH and TyrOH treatments. The prepared yeast cells were added to obtain the initial cell concentration at OD600=0.2. The serum bottles were sealed and cultured in a shaker at 30° C. and 200 rpm for 24 h. There were three biological replicates for each treatment.

[4] = tested on: S. mikatae JAY 1504; assay: as above; type: cell-based; conditions: 0.2%
Experimental: as §1, §2

[5] = tested on: S. paradoxus JAY 1502; assay: as above; type: cell-based; conditions: 0.2%
Experimental: as §1, §2

[6] = 0.05% (w/v), YPD, serum bottles
[7] = S. kudriavzezii JAY 1503, YPD (Table 9B)
[8] = S. mikatae JAY 1504, YPD (Table 9B)
[9] = S. paradoxus JAY 1502, YPD (Table 9B)

Question: With `OCCc1ccc(O)cc1` [TyrOH, Tyrosol] as the compound, how does the “Inhibitory effect on yeast cell growth in liquid YNB medium” value [1] read?
Answer: inhibitory at 1000 mg/L in both media, but not at 40 and 200 mg/L

Question: What about the Biomass Yield [2, 6] of the same compound?
Answer: 0.095 + 0.001 g/g

Question: What about the “Biomass yield % change vs. control” value [2, 6] of the same compound?
Answer: −5%

Question: What about the EtOH yield [2, 6] of the same compound?
Answer: 0.38 ± 0.01 g/g

Question: What about the “EtOH yield % change vs. control” value [2, 6] of the same compound?
Answer: 0.8%

Question: And the Glycerol yield [2, 6]?
Answer: 0.031 ± 0.001 g/g

Question: And the “Glycerol yield % change vs. control” value [2, 6]?
Answer: −9%

Question: And the “Biomass yield vs. reference” value ([2]; 0.05%, YPD, serum bottles)?
Answer: −5.0%

Question: And the Ethanol yield ([2]; 0.05%, YPD, serum bottles)?
Answer: 0.38 ± 0.01 g/g

Question: What about the “Ethanol yield vs. reference” value ([2]; 0.05%, YPD, serum bottles) of the same compound?
Answer: 0.8%

Question: And the Glycerol yield ([2]; 0.05%, YPD, serum bottles)?
Answer: 0.031 ± 0.001 g/g

Question: And the “Glycerol yield vs. reference” value ([2]; 0.05%, YPD, serum bottles)?
Answer: −9.0%

Question: And the OD600 ([2]; 0.05%, YPD, serum bottles)?
Answer: 3.66

Question: What about the “Effect on yeast cell growth” value ([2]; 0.2%) of the same compound?
Answer: reduced yeast cell growth

Question: And the Biomass Yield ([2]; 0.2% (w/v), YPD, serum bottles)?
Answer: 0.085 + 0.003 g/g

Question: And the “Biomass yield % change vs. control” value ([2]; 0.2% (w/v), YPD, serum bottles)?
Answer: −15* %

Question: What about the EtOH yield ([2]; 0.2% (w/v), YPD, serum bottles) of the same compound?
Answer: 0.40 ± 0.00 g/g

Question: What about the “EtOH yield % change vs. control” value ([2]; 0.2% (w/v), YPD, serum bottles) of the same compound?
Answer: 6.9* %

Question: What about the Glycerol yield ([2]; 0.2% (w/v), YPD, serum bottles) of the same compound?
Answer: 0.027 ± 0.000 g/g

Question: And the “Glycerol yield % change vs. control” value ([2]; 0.2% (w/v), YPD, serum bottles)?
Answer: −20* %

Question: And the “Biomass yield vs. reference” value ([2]; 0.2%, YPD, serum bottles)?
Answer: −15.3%

Question: And the “Effect on ethanol yield” value ([2]; 0.2%, YPD, serum bottles)?
Answer: increased the ethanol yield significantly

Question: And the Ethanol yield ([2]; 0.2%, YPD, serum bottles)?
Answer: 0.40 ± 0.00 g/g

Question: What about the “Ethanol yield vs. reference” value ([2]; 0.2%, YPD, serum bottles) of the same compound?
Answer: 6.9%

Question: What about the Glycerol yield ([2]; 0.2%, YPD, serum bottles) of the same compound?
Answer: 0.027 ± 0.000 g/g

Question: What about the “Glycerol yield vs. reference” value ([2]; 0.2%, YPD, serum bottles) of the same compound?
Answer: −19.9%

Question: And the OD600 ([2]; 0.2%, YPD, serum bottles)?
Answer: 3.27

Question: What about the “Biomass Yield” value ([3]; S. kudriavzezii JAY 1503) of the same compound?
Answer: 0.029 ± 0.000 g/g

Question: What about the “Biomass yield % change vs. control” value ([3]; S. kudriavzezii JAY 1503) of the same compound?
Answer: −35* %

Question: And the “EtOH yield” value ([3]; S. kudriavzezii JAY 1503)?
Answer: 0.388 ± 0.000 g/g

Question: And the “EtOH yield % change vs. control” value ([3]; S. kudriavzezii JAY 1503)?
Answer: +7.8* %

Question: What about the “Glycerol yield” value ([3]; S. kudriavzezii JAY 1503) of the same compound?
Answer: 0.056 ± 0.001 g/g

Question: And the “Glycerol yield % change vs. control” value ([3]; S. kudriavzezii JAY 1503)?
Answer: +8.1%

Question: And the DCW ([3]; S. kudriavzezii JAY 1503, YPD)?
Answer: 2.10 mg

Question: And the “DCW Δ vs. ref” value ([3]; S. kudriavzezii JAY 1503, YPD)?
Answer: 82.4%

Question: And the OD600 ([3]; S. kudriavzezii JAY 1503, YPD)?
Answer: 0.82

Question: What about the “OD600 Δ vs. ref” value ([3]; S. kudriavzezii JAY 1503, YPD) of the same compound?
Answer: 52.4%

Question: What about the “Biomass Yield” value [3, 7] of the same compound?
Answer: 0.029 + 0.000 g/g

Question: What about the “Biomass yield Δ vs. ref” value [3, 7] of the same compound?
Answer: −35.1%

Question: And the Ethanol yield [3, 7]?
Answer: 0.388 ± 0.000 g/g

Question: What about the “Ethanol yield Δ vs. ref” value [3, 7] of the same compound?
Answer: 7.8%

Question: What about the Glycerol yield [3, 7] of the same compound?
Answer: 0.056 ± 0.001 g/g

Question: What about the “Glycerol yield Δ vs. ref” value [3, 7] of the same compound?
Answer: 8.07%

Question: What about the “Biomass Yield” value ([4]; S. mikatae JAY 1504) of the same compound?
Answer: 0.052 ± 0.000 g/g

Question: What about the “Biomass yield % change vs. control” value ([4]; S. mikatae JAY 1504) of the same compound?
Answer: −20* %

Question: What about the “EtOH yield” value ([4]; S. mikatae JAY 1504) of the same compound?
Answer: 0.359 ± 0.042 g/g

Question: And the “EtOH yield % change vs. control” value ([4]; S. mikatae JAY 1504)?
Answer: +6.7* %

Question: What about the “Glycerol yield” value ([4]; S. mikatae JAY 1504) of the same compound?
Answer: 0.036 ± 0.001 g/g

Question: What about the “Glycerol yield % change vs. control” value ([4]; S. mikatae JAY 1504) of the same compound?
Answer: −24* %

Question: What about the DCW ([4]; S. mikatae JAY 1504, YPD) of the same compound?
Answer: 2.65 mg

Question: And the “DCW Δ vs. ref” value ([4]; S. mikatae JAY 1504, YPD)?
Answer: 79.1%

Question: What about the OD600 ([4]; S. mikatae JAY 1504, YPD) of the same compound?
Answer: 1.75

Question: What about the “OD600 Δ vs. ref” value ([4]; S. mikatae JAY 1504, YPD) of the same compound?
Answer: 77.3%

Question: And the “Biomass Yield” value [4, 8]?
Answer: 0.052 + 0.000 g/g

Question: And the “Biomass yield Δ vs. ref” value [4, 8]?
Answer: −20.1%

Question: What about the Ethanol yield [4, 8] of the same compound?
Answer: 0.359 ± 0.042 g/g

Question: What about the “Ethanol yield Δ vs. ref” value [4, 8] of the same compound?
Answer: 6.7%

Question: What about the Glycerol yield [4, 8] of the same compound?
Answer: 0.036 ± 0.001 g/g

Question: What about the “Glycerol yield Δ vs. ref” value [4, 8] of the same compound?
Answer: −23.65%

Question: What about the “Biomass Yield” value ([5]; S. paradoxus JAY 1502) of the same compound?
Answer: 0.055 ± 0.000 g/g

Question: What about the “Biomass yield % change vs. control” value ([5]; S. paradoxus JAY 1502) of the same compound?
Answer: −15* %

Question: And the “EtOH yield” value ([5]; S. paradoxus JAY 1502)?
Answer: 0.410 ± 0.014 g/g

Question: And the “Glycerol yield” value ([5]; S. paradoxus JAY 1502)?
Answer: 0.041 ± 0.001 g/g

Question: What about the “Glycerol yield % change vs. control” value ([5]; S. paradoxus JAY 1502) of the same compound?
Answer: −9.9%

Question: What about the DCW ([5]; S. paradoxus JAY 1502, YPD) of the same compound?
Answer: 2.15 mg

Question: What about the “DCW Δ vs. ref” value ([5]; S. paradoxus JAY 1502, YPD) of the same compound?
Answer: 81.1%

Question: What about the OD600 ([5]; S. paradoxus JAY 1502, YPD) of the same compound?
Answer: 1.90

Question: And the “OD600 Δ vs. ref” value ([5]; S. paradoxus JAY 1502, YPD)?
Answer: 85.5%

Question: And the “Biomass Yield” value [5, 9]?
Answer: 0.055 + 0.000 g/g

Question: And the “Biomass yield Δ vs. ref” value [5, 9]?
Answer: −15.4%

Question: What about the Ethanol yield [5, 9] of the same compound?
Answer: 0.410 ± 0.014 g/g

Question: What about the “Ethanol yield Δ vs. ref” value [5, 9] of the same compound?
Answer: 5.4%

Question: What about the Glycerol yield [5, 9] of the same compound?
Answer: 0.041 ± 0.001 g/g

Question: And the “Glycerol yield Δ vs. ref” value [5, 9]?
Answer: −9.89%
